Patent US10195181B2, “Carboxamide derivatives” (Novartis AG, priority 2014, dated 2019)

Target: Smurf-1 (Homo sapiens (Human), UniProt Q9HCE7)
Test: HECT E3 ligase autoubiquitinylation TR-FRET assay (Smurf-1)
Type: biochemical
Source text: To determine the HECT E3 ligase selectivity of the compounds, a panel of biochemical HECT E3 ligase autoubiquitinylation assays was employed (Smurf-1, Smurf-2, WWP1, WWP2, ITCH, Nedd4, Nedd4L and E6AP). The conjugation of ubiquitin to a protein substrate is a multistep process. In an initial ATP-requiring step, a thioester bond is formed between the carboxyl terminus of ubiquitin and an internal cystein residue of the ubiquitin-activating enzyme (E1). Activated ubiquitin is then transferred to a specific cystein residue of an ubiquitin-conjugating enzyme (E2). E2s donate ubiquitin to a HECT E3 ligase (E3) from which it is transferred to the substrate protein. HECT E3 ligases can auto-ubiquitinylate. This event is detected in the TR-FRET (Time-Resolved Fluorescence Resonance Energy Transfer) assay used in this panel. […] When these two fluorophores are brought together by a biomolecular interaction (in this case ubiquitinylation of the E3 ligase), a portion of the energy captured by the Cryptate during excitation is released through fluorescence emission at 620 nm, while the remaining energy is transferred to XL665. This energy is then released by XL665 as specific fluorescence at 665 nm. […]
After an incubation time of 45 min in the dark, the plates are transferred into the Pherastar fluorescence reader to measure the TR-FRET signal.

Smurf-1, sequence (Q9HCE7 whole entry): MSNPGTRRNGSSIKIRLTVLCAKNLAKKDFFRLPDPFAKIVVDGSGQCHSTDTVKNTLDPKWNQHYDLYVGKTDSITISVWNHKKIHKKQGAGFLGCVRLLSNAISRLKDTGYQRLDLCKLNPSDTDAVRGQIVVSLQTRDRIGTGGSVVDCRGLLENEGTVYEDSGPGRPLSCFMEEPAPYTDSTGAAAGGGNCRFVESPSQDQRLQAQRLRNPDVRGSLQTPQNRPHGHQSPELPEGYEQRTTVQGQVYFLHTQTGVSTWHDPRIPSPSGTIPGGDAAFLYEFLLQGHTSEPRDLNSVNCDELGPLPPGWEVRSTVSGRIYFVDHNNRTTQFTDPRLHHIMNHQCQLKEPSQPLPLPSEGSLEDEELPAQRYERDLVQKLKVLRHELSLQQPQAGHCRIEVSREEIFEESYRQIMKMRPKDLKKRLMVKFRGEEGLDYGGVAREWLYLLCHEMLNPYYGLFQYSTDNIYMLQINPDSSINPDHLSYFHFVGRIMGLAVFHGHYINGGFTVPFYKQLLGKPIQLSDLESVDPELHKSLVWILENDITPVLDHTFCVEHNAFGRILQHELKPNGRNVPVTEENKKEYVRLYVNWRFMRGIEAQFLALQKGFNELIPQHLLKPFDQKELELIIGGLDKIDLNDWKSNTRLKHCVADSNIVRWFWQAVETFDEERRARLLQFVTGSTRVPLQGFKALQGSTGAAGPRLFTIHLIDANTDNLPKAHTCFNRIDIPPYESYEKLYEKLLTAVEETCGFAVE

SMILES: Cc1c(C(=O)Nc2c(C)n(C)n(C(C)C)c2=O)noc1[C@@H]1CCC[C@H](C(C)(C)C)O1 (mixture of isomers) [Example 17, 5-((2R,6S)-6-(tert-butyl)tetrahydro-2H-pyran-2-yl)-N-(2-isopropyl-1,5-dimethyl-3-oxo-2,3-dihydro-1H-pyrazol-4-yl)-4-methylisoxazole-3-carboxamide and 5-((2S,6R)-6-(tert-butyl)tetrahydro-2H-pyran-2-yl)-N-(2-isopropyl-1,5-dimethyl-3-oxo-2,3-dihydro-1H-pyrazol-4-yl)-4-methylisoxazole-3-carboxamide]
- IC50: 980 nM
